Values quoted from earlier work, collected in article PMC6597953, “Taking Advantage of the Selectivity of Histone Deacetylases and Phosphodiesterase Inhibitors to Design Better Therapeutic Strategies to Treat Alzheimer’s Disease” (Frontiers in Aging Neuroscience, 2019).
pIC50: −log10 of the molar value.

Assays:
Format in all cases: biochemical
HDAC6 = target: T1, HDAC6 (Homo sapiens, UniProt Q9UBN7); assay: IC50 of HDAC6 inhibition (assay not described); supported by alpha-tubulin acetylation western blot in SH-SY5Y cells
T1 sequence (Q9UBN7 1-1215): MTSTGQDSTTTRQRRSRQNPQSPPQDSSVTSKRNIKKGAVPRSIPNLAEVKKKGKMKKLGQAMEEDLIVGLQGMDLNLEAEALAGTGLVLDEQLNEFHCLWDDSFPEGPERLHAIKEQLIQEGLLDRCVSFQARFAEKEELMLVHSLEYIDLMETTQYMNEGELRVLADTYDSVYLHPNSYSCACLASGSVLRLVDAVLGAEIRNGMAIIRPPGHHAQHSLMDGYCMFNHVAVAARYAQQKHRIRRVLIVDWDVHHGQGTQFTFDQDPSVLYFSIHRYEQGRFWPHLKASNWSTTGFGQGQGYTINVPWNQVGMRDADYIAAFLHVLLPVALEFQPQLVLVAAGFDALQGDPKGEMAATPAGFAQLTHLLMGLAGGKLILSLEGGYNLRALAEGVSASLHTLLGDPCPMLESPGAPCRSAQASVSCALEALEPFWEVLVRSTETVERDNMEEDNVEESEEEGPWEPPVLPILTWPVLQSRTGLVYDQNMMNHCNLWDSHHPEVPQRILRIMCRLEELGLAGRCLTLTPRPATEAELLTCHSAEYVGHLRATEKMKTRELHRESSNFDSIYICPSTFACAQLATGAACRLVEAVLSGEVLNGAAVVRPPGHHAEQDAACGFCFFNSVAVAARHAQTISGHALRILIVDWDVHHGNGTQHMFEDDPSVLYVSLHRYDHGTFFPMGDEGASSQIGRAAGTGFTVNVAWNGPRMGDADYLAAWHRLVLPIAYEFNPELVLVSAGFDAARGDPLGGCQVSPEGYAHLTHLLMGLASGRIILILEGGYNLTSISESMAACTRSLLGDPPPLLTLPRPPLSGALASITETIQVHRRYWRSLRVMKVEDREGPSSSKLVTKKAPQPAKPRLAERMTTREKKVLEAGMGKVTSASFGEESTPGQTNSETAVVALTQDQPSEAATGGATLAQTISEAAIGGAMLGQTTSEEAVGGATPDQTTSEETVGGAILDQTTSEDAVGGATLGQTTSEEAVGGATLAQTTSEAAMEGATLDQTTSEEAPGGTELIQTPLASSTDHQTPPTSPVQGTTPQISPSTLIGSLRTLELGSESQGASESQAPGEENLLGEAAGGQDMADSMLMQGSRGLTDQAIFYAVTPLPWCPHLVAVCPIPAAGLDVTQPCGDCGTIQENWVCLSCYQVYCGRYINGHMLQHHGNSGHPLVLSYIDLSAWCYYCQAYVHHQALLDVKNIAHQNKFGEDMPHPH

HDAC1 = HDAC1 (Homo sapiens, UniProt Q13547); assay: IC50 of HDAC1 inhibition (assay not described); AcH3K9 western blot in SH-SY5Y cells at […]
HDAC2 = HDAC2 (Homo sapiens, UniProt Q92769); assay: IC50 of HDAC2 inhibition (assay not described)
PDE9 = target: T2, PDE9 (Homo sapiens, UniProt O76083); assay: IC50 of PDE9 inhibition (assay not described); supported by pCREB western blot in SH-SY5Y cells
T2 construct: gene PDE9A
T2 sequence (O76083 whole entry): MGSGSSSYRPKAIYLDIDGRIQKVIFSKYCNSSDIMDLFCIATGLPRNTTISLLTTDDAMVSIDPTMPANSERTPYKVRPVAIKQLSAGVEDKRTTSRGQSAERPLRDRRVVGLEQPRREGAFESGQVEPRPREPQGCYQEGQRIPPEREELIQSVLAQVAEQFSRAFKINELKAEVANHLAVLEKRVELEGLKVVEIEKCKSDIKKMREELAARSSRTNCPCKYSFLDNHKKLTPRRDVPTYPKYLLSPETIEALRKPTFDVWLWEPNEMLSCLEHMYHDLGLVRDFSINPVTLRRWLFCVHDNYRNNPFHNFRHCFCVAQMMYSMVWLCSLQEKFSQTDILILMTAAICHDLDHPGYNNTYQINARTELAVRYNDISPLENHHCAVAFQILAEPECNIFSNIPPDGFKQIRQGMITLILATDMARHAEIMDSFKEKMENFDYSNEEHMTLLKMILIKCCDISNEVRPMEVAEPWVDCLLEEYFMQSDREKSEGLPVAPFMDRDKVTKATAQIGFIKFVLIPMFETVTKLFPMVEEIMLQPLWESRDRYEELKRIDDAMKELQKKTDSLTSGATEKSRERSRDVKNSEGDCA

Chain of HDAC1 (Q13547 whole entry): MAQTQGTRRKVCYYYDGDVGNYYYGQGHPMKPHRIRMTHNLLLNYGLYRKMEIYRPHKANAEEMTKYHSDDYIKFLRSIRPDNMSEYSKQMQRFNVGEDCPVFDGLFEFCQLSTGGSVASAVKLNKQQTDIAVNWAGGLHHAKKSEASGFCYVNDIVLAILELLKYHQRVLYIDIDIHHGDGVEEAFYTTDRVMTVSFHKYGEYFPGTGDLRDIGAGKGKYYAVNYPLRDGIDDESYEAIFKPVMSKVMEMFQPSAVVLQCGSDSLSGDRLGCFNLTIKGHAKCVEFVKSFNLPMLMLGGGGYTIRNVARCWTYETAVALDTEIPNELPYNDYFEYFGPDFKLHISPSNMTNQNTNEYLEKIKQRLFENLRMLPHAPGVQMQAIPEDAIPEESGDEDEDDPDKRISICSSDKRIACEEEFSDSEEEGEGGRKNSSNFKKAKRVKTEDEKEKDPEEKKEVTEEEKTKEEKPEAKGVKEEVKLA
Chain of HDAC2 (Q92769 whole entry): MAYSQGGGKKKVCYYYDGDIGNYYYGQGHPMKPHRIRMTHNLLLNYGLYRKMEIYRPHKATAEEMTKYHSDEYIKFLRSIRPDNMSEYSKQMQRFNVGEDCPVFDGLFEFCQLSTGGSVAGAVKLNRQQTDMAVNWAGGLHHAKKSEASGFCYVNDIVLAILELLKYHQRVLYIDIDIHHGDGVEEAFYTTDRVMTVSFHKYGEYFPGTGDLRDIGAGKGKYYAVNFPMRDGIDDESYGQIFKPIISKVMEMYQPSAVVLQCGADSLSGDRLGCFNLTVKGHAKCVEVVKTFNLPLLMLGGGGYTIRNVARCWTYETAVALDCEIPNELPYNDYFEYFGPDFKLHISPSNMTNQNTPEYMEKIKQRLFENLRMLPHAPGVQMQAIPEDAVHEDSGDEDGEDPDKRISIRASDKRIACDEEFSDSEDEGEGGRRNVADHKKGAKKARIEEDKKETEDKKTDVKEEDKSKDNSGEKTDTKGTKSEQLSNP

CM-695
pIC50 (HDAC6): 7.40
pIC50 (HDAC1): 6.23
pIC50 (HDAC2): 5.45
pIC50 (PDE9): 6.97
